Patent USRE50977E1, “Methods for production of platelets from pluripotent stem cells and compositions thereof” (Astellas Institute for Regenerative Medicine, priority 2012, dated 2026)

Columns and labels:
MKs derived from HA-iPS = experiment: Platelet generation under constant shear force in microfluidic device, HA-iPS derived MKs; format: cell-based, human
Procedure: Matured MKs, derived from HA-iPS and MA09 hES lines, were used. Equal numbers of MKs suspended in MK-specific medium were loaded into a microfluidic device in the presence or absence of 20 μM MMP inhibitor GM6001. Constant shear force was applied to the MKs throughout the culture period. MK-medium downstream of MKs was collected at 30 minute intervals for a period of 6 hours. Platelet number and purity (i.e., percentage of total cells that are CD41a^+CD42b^+) in the collected media were measured using flow cytometer.

[1] = tested on: iPS derived megakaryocytes; experiment: Platelet formation in static culture with MMP inhibitors; format: cell-based, human; conditions: for protection of platelets (CD42b shedding) compared with GM6001: comparative study of specific MMP inhibitors
Procedure: The peak of platelet production is determined by measuring platelet content in the culture, for example on a daily basis for several days. It is typically 4-7 days after the beginning of the MLP differentiation culture period, although it may be longer or it may be shifted. To induce MK maturation and platelet formation, freshly collected or thawed MKPs were cultured in MK maturation medium (MK-M) containing […]+TPO, SCF, IL-6 and […] Megakaryocyte Expansion Supplement) and heparin (5 U/ml) in ultralow attachment plates (Corning). 5 μM of Y-27632 was added for the first 3 days of culture, and cells were incubated in 7% CO2 at 39° C. Cell morphology and density were monitored daily and fresh medium was added to maintain 10^6 cells/ml for the first 4 days. The maturation of MKs from MKPs was monitored using flow cytometric analysis of CD41a, CD42b, and CD235a. Once pro-platelet morphology was observed, medium samples were taken daily to determine platelet yield using CD41a/CD42b double staining by flow cytometric analysis. Platelets were collected for 3-5 consecutive days during the peak of production. To extract platelets, large MKs were removed first using low speed centrifugation (50×g for 10 min), and proplatelets and small MKs were removed by further 10 min centrifugation at 300×g. The iPS-platelets in the supernatants were collected using higher g force (1000-2500×g) in the presence of PGE1 (1 μM). The collected iPS-platelet pellets were then subjected to further purification using a BSA gradient centrifugation as described previously (Robert et al., 2012). Briefly, iPS-platelet pellets were re-suspended with 1× CGS buffer. Platelets were applied in the buffer on top of a BSA gradient with BSA concentration of (weight/volume) of 12, 10, 7, 5 and 2%. The sample was centrifuged at 82×g for 15 min with no break, then the platelet-rich fraction was collected. iPS-platelets purified from BSA gradient were stored or transported at room temperature in MK-M for further analyses.

c-myc gene expression = experiment: Q-PCR of MYC in MKPs treated with iBET151; format: cell-based, human; conditions: 0.1 and 0.25 μM
Procedure: (§1) As also described above in Example 10, we therefore determined whether suppression of c-myc expression would enhance MK lineage differentiation/expansion and simultaneously prohibit myeloid and other lineage differentiation/expansion. MKP Day 6+3 cultures were treated with non-cytotoxic doses of a c-myc inhibitor, iBET151 (0.1 and 0.25 μM) for 24 hours and then harvested for analysis. […] CD14+ myeloid cells were decreased from about 12% in control cultures to less than 5% and 3% in cultures treated with iBET151 at 0.1 and 0.25 μM, respectively.

[2] = tested on: human and murine MLL-fusion leukemic cell lines; conditions: induction of early cell cycle arrest and apoptosis; cited from earlier work
[3] = tested on: cells undergoing in vitro megakaryopoiesis; experiment: iBET151 treatment of MKP Day 6+3 cultures; format: cell-based, human; conditions: for increase of MKP outputs vs untreated controls: 24 hours; for CD14+ myeloid cells: D6+3 to D6+4, control about 12%; for number/formation of CD14+ myeloid cells: 0.1 and 0.25 μM
Procedure: To promote early MK progenitor production, cells were cultured in MK-Specific Progenitor Expansion medium (EXP-M) containing STEMdiff APEL Medium+TPO (25 ng/ml), SCF (25 ng/ml), Flt-3 ligand (25 ng/ml), IL-3 (10 ng/ml), IL-6 (10 ng/ml) and heparin (5 U/ml) for up to 7 days. Non-adherent MK Progenitors (MKPs) were constantly released into the medium and harvested for 4-5 consecutive days in EXP-M. Daily harvests were cryo-preserved in animal protein-free defined cryopreservation CryoStor™ medium. Samples of MKPs were also subjected to flow cytometry for analysis of CD41a, CD42b, CD31, CD34, CD43, CD13, CD235a, and CD14 cell surface expression.
as §1

GATA1 gene expression = experiment: Q-PCR of GATA1 in MKPs treated with iBET151; format: cell-based, human; conditions: 0.1 and 0.25 μM
Procedure: as §1

[4] = constant shear force, 20 μM added at beginning of culture, vs DMSO

CNC(=O)[C@H](Cc1c[nH]c2ccccc12)NC(=O)[C@@H](CC(=O)NO)CC(C)C [GM6001]
platelet purity (percentage CD41a+CD42b+) (MKs derived from HA-iPS; [4]): significantly improved | platelet yield (MKs derived from HA-iPS; [4]): significantly improved | platelet numbers as a function of time (MKs derived from HA-iPS; shear force culture, FIG. 23): significantly more platelets were generated | CD41b+/CD42b+ platelets ([1]; added in MK culture, control 45%): 59%

COc1cc2c(cc1-c1c(C)noc1C)ncc1[nH]c(=O)n([C@H](C)c3ccccn3)c12 [iBET151]
c-myc (MYC) mRNA expression (c-myc gene expression): dose-dependent downregulation | c-myc (MYC) mRNA expression (c-myc gene expression; listed as i-BET-151): dose-dependent inhibition | efficacy against leukemic cell lines [2]: profound efficacy | increase of MKP outputs vs untreated controls ([3]; 0.1 μM): ≈ 2 fold | CD14+ myeloid cells ([3]; 0.1 μM): less than 5% | increase of MKP outputs vs untreated controls ([3]; 0.25 μM): ~4 fold | CD14+ myeloid cells ([3]; 0.25 μM): < 3% | number/formation of CD14+ myeloid cells [3]: inhibited | number/formation of CD14+ myeloid cells ([3]; listed as i-BET-151): dose-dependent decrease | apoptosis ([3]; high dose): massive apoptosis | numbers of MK progenitors ([3]; lower doses, micromolar or submicromolar range): increased numbers of MK progenitors | GATA1 mRNA expression (GATA1 gene expression): up-regulation | GATA1 mRNA expression (GATA1 gene expression; listed as i-BET-151): up-regulated

COc1ccc(S(=O)(=O)N2Cc3ccccc3C[C@@H]2C(=O)NO)cc1 [MMP8-I, (3R)-(+)-[2-(4-Methoxybenzenesulfonyl)-1,2,3,4-tetrahydroisoquinoline-3-hydroxamate]]
total number of CD41a+CD42b+ platelets, increase vs control ([1]; MK culture): ~ 46% | protection of platelets (CD42b shedding) compared with GM6001 [1]: superior shedding protection than GM | protection of platelets (CD42b shedding) compared with GM6001 ([1]; listed as MMP8 inhibitor): more potency than GM6001 | CD41a+CD42b+ platelets produced as compared to GM6001 ([1]; static culture): Significantly more | purity gain over GM6001-treated cultures ([1]; static culture): approximately 10% | purity of iPS-derived platelets ([1]; static culture, added at the peak of platelet production, control 43.7%): 65.5%
